Data on 2 compounds can be found in US6809065B2, “Herbicide containing substituted pyrazole derivative as active ingredient” (SDS Biotech K.K., priority 2001, dated 2004).

Data set [1] relates to Stellaria media. The data set can be described thus: Upland soil treatment (Test Example 2). It counts as in vivo. The conditions noted are these: soil surface treatment next day after sowing, wettable powder, 1 kg active ingredient per hectare, evaluated 21st day after application. In outline:
(§1)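 Applies a soil-surface, pre-emergence spray of 1 kg active ingredient/ha (wettable powder in water) one day after sowing; weed control and crop injury are rated on an index scale three weeks later.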

Data set [2] concerns Chenopodium album. Put plainly: Upland soil treatment (Test Example 2). In kind it is in vivo. As to conditions: soil surface treatment next day after sowing, wettable powder, 1 kg active ingredient per hectare, evaluated 21st day after application. In outline: as §1
The subject of data set [3] is Digitaria adscendens. The data set can be described thus: Upland soil treatment (Test Example 2). In kind it is in vivo. The conditions noted are these: soil surface treatment next day after sowing, wettable powder, 1 kg active ingredient per hectare, evaluated 21st day after application. In a few lines:
as §1

Data set [4] relates to Setaria viridis. The data set can be described thus: Upland soil treatment (Test Example 2). As to conditions: soil surface treatment next day after sowing, wettable powder, 1 kg active ingredient per hectare, evaluated 21st day after application. It counts as in vivo. In outline:
as §1

The test system of data set [5] is Stellaria media. Put plainly: Upland field foliage treatment (Test Example 1). It counts as in vivo. The conditions noted are these: foliage treatment 14th day after sowing, wettable powder, 1 kg active ingredient per hectare, evaluated 21st day after application. In a few lines:
(§2)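 Scored on an index 21 days after treatment: a high value on weeds means more herbicidal effect, and a low value on crops means more crop safety. Treatment was a foliar spray of water-diluted wettable powder at 1 kg a.i./ha, applied to plants 14 days after sowing in upland soil.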

For data set [6], the system named is Chenopodium album. Put plainly: Upland field foliage treatment (Test Example 1). It counts as in vivo. The conditions noted are these: foliage treatment 14th day after sowing, wettable powder, 1 kg active ingredient per hectare, evaluated 21st day after application. In outline:
as §2

Data set [7] deals with Digitaria adscendens. Put plainly: Upland field foliage treatment (Test Example 1). It counts as in vivo. As to conditions: foliage treatment 14th day after sowing, wettable powder, 1 kg active ingredient per hectare, evaluated 21st day after application. In a few lines:
as §2

For data set [8], the system named is Setaria viridis. Put plainly: Upland field foliage treatment (Test Example 1). It counts as in vivo. As to conditions: foliage treatment 14th day after sowing, wettable powder, 1 kg active ingredient per hectare, evaluated 21st day after application. In outline: as §2
The test system of data set [9] is rice (Oryza sative, variety: Koshihikari). The data set can be described thus: Paddy field treatment (Test Example 3), crop. In kind it is in vivo, Oryza sativa. The conditions noted are these: transplanted rice two-leaf period, water surface treatment 10th day after transplantation, 1 kg active ingredient per hectare, evaluated 21st day, lower index = higher safety. In outline:
(§3)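 Index scoring of herbicidal effect and rice safety 21 days after treatment. The wettable powder, dosed at 1 kg a.i./ha, was dripped onto flooded pots (4 cm water) 10 days after transplanting two-leaf Koshihikari rice. Weed seeds had been sown into the puddled soil.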

Data set [10] relates to Echinochloa spp. Put plainly: Paddy field treatment (Test Example 3). It counts as in vivo, Echinochloa crusgalli. As to conditions: paddy pot, submerged 4 cm, dropped on water surface 10th day after transplantation, 1 kg active ingredient per hectare, evaluated 21st day. In outline: as §3
The subject of data set [11] is Ammannia multiflora. The data set can be described thus: Paddy field treatment (Test Example 3). It counts as in vivo. The conditions noted are these: paddy pot, submerged 4 cm, dropped on water surface 10th day after transplantation, 1 kg active ingredient per hectare, evaluated 21st day. In outline: as §3
Data set [12] deals with Monochoria vaginalis. Put plainly: Paddy field treatment (Test Example 3). In kind it is in vivo. As to conditions: paddy pot, submerged 4 cm, dropped on water surface 10th day after transplantation, 1 kg active ingredient per hectare, evaluated 21st day. In outline:
as §3

The test system of data set [13] is Scirpus juncoides. The data set can be described thus: Paddy field treatment (Test Example 3). It counts as in vivo. The conditions noted are these: paddy pot, submerged 4 cm, dropped on water surface 10th day after transplantation, 1 kg active ingredient per hectare, evaluated 21st day. In a few lines:
as §3

Data set [14] has as its system wheat (Triticum aestivum). The data set can be described thus: Upland field foliage treatment (Test Example 1), crop. In kind it is in vivo. As to conditions: foliage treatment 14th day after sowing, 1 kg active ingredient per hectare, evaluated 21st day, lower index = higher safety. In outline:
as §2

Data set [15] has as its system soybean (Glycine max). The description is as above. As to conditions: foliage treatment 14th day after sowing, 1 kg active ingredient per hectare, evaluated 21st day, lower index = higher safety. It counts as in vivo. In outline: as §2
Data set [16] relates to wheat (Triticum aestivum). The data set can be described thus: Upland soil treatment (Test Example 2), crop. It counts as in vivo. As to conditions: soil surface treatment next day after sowing, 1 kg active ingredient per hectare, evaluated 21st day, lower index = higher safety. In outline: as §1
The test system of data set [17] is soybean (Glycine max). Put plainly: Upland soil treatment (Test Example 2), crop. As to conditions: soil surface treatment next day after sowing, 1 kg active ingredient per hectare, evaluated 21st day, lower index = higher safety. It counts as in vivo. In outline:
as §1

The structures appear in SMILES notation.

As for `COC=C(Cn1nc(-c2ccccc2)c(Br)c1SC)C(=O)OC` [Compound 44], the “Herbicidal activity Stellaria media” value in [1] is 4 (herbicidal effect of not less than 70% by weight and less than 90% by weight); in data set [5], 4 (herbicidal effect of not less than 70% by weight and less than 90% by weight). Moreover, the “Herbicidal activity Chenopodium album” value in [2] was 4 (herbicidal effect of not less than 70% by weight and less than 90% by weight); in [6], 4 (herbicidal effect of not less than 70% by weight and less than 90% by weight). Further, the “Herbicidal activity Digitaria adscendens” value in data set [3] was 4 (herbicidal effect of not less than 70% by weight and less than 90% by weight); in data set [7], 4 (herbicidal effect of not less than 70% by weight and less than 90% by weight). The “Herbicidal activity Setaria viridis” value was 4 (herbicidal effect of not less than 70% by weight and less than 90% by weight) in [4]; 4 (herbicidal effect of not less than 70% by weight and less than 90% by weight) in data set [8]. Moreover, the “Herbicidal activity Oryza sativa” value in data set [9] is 0 (herbicidal effect of not less than 0% by weight and less than 10% by weight). Besides, the “Herbicidal activity Echinochloa spp.” value in data set [10] is 3 (herbicidal effect of not less than 50% by weight and less than 70% by weight). In addition, the “Herbicidal activity Ammannia multiflora” value in [11] is 3 (herbicidal effect of not less than 50% by weight and less than 70% by weight). The “Herbicidal activity Monochoria vaginalis” value in data set [12] was 3 (herbicidal effect of not less than 50% by weight and less than 70% by weight). For the same compound, in [13], the “Herbicidal activity Scirpus juncoides” value is 3 (herbicidal effect of not less than 50% by weight and less than 70% by weight). In addition, the “Herbicidal activity Triticum aestivum” value in [14] is 0 (herbicidal effect of not less than 0% by weight and less than 10% by weight); in data set [16], 0 (herbicidal effect of not less than 0% by weight and less than 10% by weight). Also, the “Herbicidal activity Glycine max” value is 0 (herbicidal effect of not less than 0% by weight and less than 10% by weight) in data set [15]; 0 (herbicidal effect of not less than 0% by weight and less than 10% by weight) in data set [17].
Regarding `COC=C(Cn1cc(C)c(-c2ccc(F)cc2)n1)C(=O)OC` [Compound 14], the “Herbicidal activity Stellaria media” value in data set [1] and in data set [5] was 5 (herbicidal effect of not less than 90% by weight) throughout. Moreover, the “Herbicidal activity Chenopodium album” value in data set [2] and in data set [6] was 5 (herbicidal effect of not less than 90% by weight) throughout. Also, the “Herbicidal activity Digitaria adscendens” value in [3] and in data set [7] was 5 (herbicidal effect of not less than 90% by weight) in each case. The “Herbicidal activity Setaria viridis” value in data set [4] and in data set [8] was 5 (herbicidal effect of not less than 90% by weight) in each case. Further, the “Herbicidal activity Oryza sativa” value in data set [9] is 0 (herbicidal effect of not less than 0% by weight and less than 10% by weight). In addition, the “Herbicidal activity Echinochloa spp.” value in data set [10] is 5 (herbicidal effect of not less than 90% by weight). Besides, in [11], the “Herbicidal activity Ammannia multiflora” value was 5 (herbicidal effect of not less than 90% by weight). The “Herbicidal activity Monochoria vaginalis” value in data set [12] is 5 (herbicidal effect of not less than 90% by weight). Besides, in [13], the “Herbicidal activity Scirpus juncoides” value is 5 (herbicidal effect of not less than 90% by weight). Moreover, the “Herbicidal activity Triticum aestivum” value in data set [14] is 0 (herbicidal effect of not less than 0% by weight and less than 10% by weight); in data set [16] it was 0 (herbicidal effect of not less than 0% by weight and less than 10% by weight). Also, the “Herbicidal activity Glycine max” value in data set [15] is 0 (herbicidal effect of not less than 0% by weight and less than 10% by weight); in data set [17], 0 (herbicidal effect of not less than 0% by weight and less than 10% by weight).
